Source: patent US20040241088A1, “Method for evaluating the efficacy of certain cancer treatments” (Georgetown University, priority 2003, published 2004)

How the values were obtained:
[1] = system: 17 kDa fragment of caspase 3; assay: 17 kDa fragment of caspase 3 in PANC-1 cells in vitro (Western); type: cell-based, human; conditions: 9 hours, Gemzar 0.8 μM, ODN 1 μM
Protocol: A. To detect the presence of the 17 kDa active caspase 3 fragment in cell cultures the following procedure was used in subsequent Examples to isolate total protein from both living and dead floating cells. The medium from the cell culture vessel was removed and reserved.
To lyse the cells, resuspend the cell pellet in 150 μl-200 μl RIPA buffer (with freshly prepared inhibitors) per 3×10^6 cells. RIPA buffer is 1×PBS, 1% NP40, 0.5% sodium deoxycholate, 0.1% SDS (this may be made in large volumes). Add inhibitors at time of use from the following stock solutions:
In a further specific embodiment of this invention, it was determined that the cleaved 17 kDa subunit can be detected in tumor and/or blood as a means of verifying the efficacy of therapy with antisense (AS) HER-2, i.e. that the apoptotic pathway is induced by AS HER-2 treatment. […]
Also evaluated in vitro was the induction of the 17 kDa fragment by the combination of the TfRscFv-LipA-AS HER-2 plus the chemotherapeutic agent Gemzar® (gemcitabine).

[2] = system: components of the PI3K/AKT pathway and apoptosis; assay: Western analysis of signal transduction and apoptosis proteins in PANC-1 cells; type: cell-based, human
Description: (§1) Treatment of Pancreatic Cancer (PanCa) with the tumor targeting TfRscFv-LipA-AS HER-2 complex can down-regulate HER-2 expression (even when not overexpressed), thus negatively affecting cell growth/survival and positively enhancing apoptotic pathways leading to increased tumor cell killing.
The phosphorothioate sequence specific AS HER-2, complementary to the initiation codon region (5′-TCC ATG GTG CTC ACT-3′), and the control, non-sequence specific SC (5′-CTA GCC ATG CTT GTC-3′) ODNs were synthesized and purified by reverse phase HPLC by Ransom Hill Biosciences (Ramona, Calif.). […] PANC-1 or COLO 357 cells were seeded/in a six well plate and transfected 24 hours later with the TfRscFv-LipA complex carrying 1 μM (for PANC-1) or 0.5 μM (for COLO 357) AS HER-2 or SC HER-2 ODN (negative control). The cells were transfected with either oligo alone or, to look for a synergistic effect, in combination with gemcitabine (Gemzar®). At the indicated times, the cells were harvested, lysed in RIPA buffer, protein determined, run (60 ug total protein/lane) on a 4-20% gradient polyacrylamide/SDS gel and transferred to nitrocellulose for Western analysis as described in Examples 1, 3 and 4. To detect HER-protein expression the membranes were probed with the anti-human HER-2/Neu (C-18) rabbit polyclonal Ab (Santa Cruz Biotechnology) and the signal detected by ECL (Amersham). Change in protein expression as compared to untreated cells was also ascertained for total and/or phosphorylated Akt (Ser 473), a central component in the PI3K pathway (using an anti-Human polyclonal Ab, Cell Signaling Technology),phosphorylated BAD (Ser 136), an important factor in regulation of apoptosis (using an anti-human rabbit polyclonal antibody, Cell Signaling Technology), as well as cleaved caspase 3 (Asp 175) (using the rabbit polyclonal antibody, specific for the 17 kDa subunit, Cell Signaling Technology) and PARP/cleaved PARP (poly ADP ribopolymerase, another marker of apoptosis) using an anti-human rabbit polyclonal antibody, (Cell Signaling Technology) both downstream indicators of apoptosis.

[3] = system: components of the PI3K/AKT pathway and apoptosis; assay: Western analysis of signal transduction and apoptosis proteins in COLO357 cells; type: cell-based; conditions: 8 hrs post-transfection
Description: as §1
The phosphorothioate sequence specific AS HER-2, complementary to the initiation codon region (5′-TCC ATG GTG CTC ACT-3′), and the control, non-sequence specific SC (5′-CTA GCC ATG CTT GTC-3′) ODNs were synthesized and purified by reverse phase HPLC by Ransom Hill Biosciences (Ramona, Calif.). […] PANC-1 or COLO 357 cells were seeded/in a six well plate and transfected 24 hours later with the TfRscFv-LipA complex carrying 1 μM (for PANC-1) or 0.5 μM (for COLO 357) AS HER-2 or SC HER-2 ODN (negative control). The cells were transfected with either oligo alone or, to look for a synergistic effect, in combination with gemcitabine (Gemzar®). At the indicated times, the cells were harvested, lysed in RIPA buffer, protein determined, run (60 ug total protein/lane) on a 4-20% gradient polyacrylamide/SDS gel and transferred to nitrocellulose for Western analysis as described in Examples 1, 3 and 4. To detect HER-protein expression the membranes were probed with the anti-human HER-2/Neu (C-18) rabbit polyclonal Ab (Santa Cruz Biotechnology) and the signal detected by ECL (Amersham). […]

[4] = system: 17 kDa cleaved caspase 3 fragment; assay: Tumor-specific localization of the 17 kDa fragment in tumor, liver and lung of PANC-1 xenograft mice; type: in vivo; conditions: PANC-1 tumor; ODN 10 mg/kg i.v. daily for six days; Gemzar 60 mg/kg i.p. x3; 24 hours after last injection
Protocol: PANC-1 tumors were induced by implantation of <1 mm^3 tumor sections from serially passaged PANC-1 xenograft tumors into 4-6 week old female nude mice. When the tumors reached approximately 100-200 mm^3 the TfRscFv-LipA-AS HER-2 complex was i.v. injected into the tail vein daily for six days. The dose of ODN (AS or SC) administered per mouse was 10 mg/kg/injection. For comparison to standard therapy, a separate animal received chemotherapeutic agent Gemzar® (i.p.) only (60 mg/kg/injection) every other day to a total of three injections. In addition, one mouse received the combination of TfRscFv-LipA-AS HER-2 and Gemzar® at the above dose and schedule, and, as a control, one received the combination of complex carrying SC ODN and Gemzar® at the above dose and schedule. All mice were sacrificed 24 hours after the last injection and tumor, liver and lung were harvested as in Example 1. To assess tumor specific targeting in this model HER-2 and the 17 kDa cleaved caspase 3 fragment expression in the tissues was examined by Western Blot analysis Examples 3 and 4. The effect of TfRscFv-LipA-AS HER-2 on induction of the 17 kDa fragment in tumor and tissue samples also screened for HER-2 levels was examined.

PANC-1 xenograft tumors = assay: In vivo chemosensitization: growth of subcutaneous PANC-1 xenograft tumors; design: species or system mice; conditions: complex i.v. three times per week, ODN 9 mg/kg (18 injections); Gemzar i.p. twice weekly 60 mg/kg (12 injections)
Protocol: The efficacy of the TfRscFv-LipA-AS HER-2 in treating PanCa in vivo was assessed using the subcutaneous PANC-1 xenograft mouse model. Athymic nude mice (5-9 mice/group with two tumors/mouse) bearing subcutaneous xenograft tumors of ˜50 mm^3 were treated three times per week with the TfRscFv-LipA-AS HER-2 complex containing ODN at 9 mg/kg/injection. As controls one group of animals received Gemzar® alone, the TfRscFv-LipA-AS HER-2 alone, or the combination of Gemzar® and the complex carrying the SC ODN. Gemzar® was given I.P. twice weekly at 60 mg/kg. The animals received a total of 18 i.v. injections of complex and 12 of Gemzar®.

Structure (SMILES): Nc1ccn([C@@H]2O[C@H](CO)[C@@H](O)C2(F)F)c(=O)n1 [Gemzar®, gemcitabine]
- expression of 17 kDa fragment [1]: did not result in the expression of this fragment above background levels
- cleaved caspase 3 (appearance of the 17 kDa protein) ([2]; 8 hours post-transfection): not in those cells
- cleaved PARP ([2]; 16 hours post-transfection): evident
- cleaved caspase 3 (17 kDa fragment) ([2]; 16 hours post-transfection): evident
- cleaved PARP [3]: little or no evidence
- cleaved caspase 3 (17 kDa subunit) [3]: little or no evidence
- induction of the 17 kDa fragment in the tumor [4]: not evident
- tumor growth (PANC-1 xenograft tumors): only minimal effect
